pIC50: −log10 of the molar value. The source made the active and inactive calls. No cut-off for these calls is given here.
Tests used:
U-937 = assay: Antiproliferative activity against human U-937 cells assessed as reduction in cell viability measured for 48 hrs by MTT assay; type: functional, cell-based; details: U-937, 48 h
NIH3T3 = assay: Antiproliferative activity against mouse 3T3 cells assessed as reduction in cell viability at 100 uM measured for 48 hrs by MTT assay relative to control; type: toxicity, cell-based; details: nih3t3, 48 h
[1] = target: DNA topoisomerase 2-alpha (Homo sapiens) (UniProt P11388); assay: Inhibition of human topoisomerase 2 assessed as relaxation of pBR322 plasmid DNA at 100 uM measured after 30 mins by ethidium bromide staining based UV transilluminator analysis
Chain of DNA topoisomerase 2-alpha (Homo sapiens) (P11388 whole entry): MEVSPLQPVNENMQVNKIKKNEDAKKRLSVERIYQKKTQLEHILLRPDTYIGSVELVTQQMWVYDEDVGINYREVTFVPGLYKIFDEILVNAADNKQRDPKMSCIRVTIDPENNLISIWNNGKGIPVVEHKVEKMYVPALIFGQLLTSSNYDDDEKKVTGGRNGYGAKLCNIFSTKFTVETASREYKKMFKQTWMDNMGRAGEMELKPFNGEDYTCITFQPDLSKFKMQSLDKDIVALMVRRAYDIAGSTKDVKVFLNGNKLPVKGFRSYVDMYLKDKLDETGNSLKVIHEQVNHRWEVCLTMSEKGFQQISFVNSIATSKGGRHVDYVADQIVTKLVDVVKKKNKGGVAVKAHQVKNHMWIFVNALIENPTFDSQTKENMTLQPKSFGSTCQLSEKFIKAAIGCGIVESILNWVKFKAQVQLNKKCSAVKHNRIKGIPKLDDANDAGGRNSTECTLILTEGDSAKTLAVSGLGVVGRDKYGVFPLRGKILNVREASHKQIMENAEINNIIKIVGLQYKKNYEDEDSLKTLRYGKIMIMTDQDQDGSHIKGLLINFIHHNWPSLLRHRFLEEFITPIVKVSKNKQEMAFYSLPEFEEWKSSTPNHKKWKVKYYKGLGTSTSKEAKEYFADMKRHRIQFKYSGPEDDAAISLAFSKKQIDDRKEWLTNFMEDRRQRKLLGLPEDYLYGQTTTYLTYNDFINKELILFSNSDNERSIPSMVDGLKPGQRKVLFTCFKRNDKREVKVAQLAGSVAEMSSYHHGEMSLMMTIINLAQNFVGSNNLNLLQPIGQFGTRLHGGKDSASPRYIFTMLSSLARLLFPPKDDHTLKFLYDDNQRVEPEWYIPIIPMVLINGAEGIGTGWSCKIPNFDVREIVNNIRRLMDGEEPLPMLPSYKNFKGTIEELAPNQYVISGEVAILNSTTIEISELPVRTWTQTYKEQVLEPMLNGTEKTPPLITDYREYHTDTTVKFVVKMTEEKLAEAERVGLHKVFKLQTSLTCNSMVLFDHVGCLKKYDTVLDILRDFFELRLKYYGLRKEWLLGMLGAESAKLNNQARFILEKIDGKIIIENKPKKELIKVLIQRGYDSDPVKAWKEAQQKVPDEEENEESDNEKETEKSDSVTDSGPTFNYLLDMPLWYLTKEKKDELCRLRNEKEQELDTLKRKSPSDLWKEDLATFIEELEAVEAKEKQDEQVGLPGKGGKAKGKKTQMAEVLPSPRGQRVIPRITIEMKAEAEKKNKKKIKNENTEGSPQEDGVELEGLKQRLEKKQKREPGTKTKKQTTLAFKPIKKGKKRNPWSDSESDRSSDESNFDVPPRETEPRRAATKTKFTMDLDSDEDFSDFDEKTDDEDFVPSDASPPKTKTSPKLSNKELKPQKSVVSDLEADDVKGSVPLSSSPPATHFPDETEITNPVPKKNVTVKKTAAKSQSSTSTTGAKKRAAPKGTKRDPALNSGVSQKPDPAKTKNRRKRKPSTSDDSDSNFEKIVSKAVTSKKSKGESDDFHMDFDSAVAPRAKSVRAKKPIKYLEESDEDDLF

MCF7 = assay: Antiproliferative activity against human MCF7 cells assessed as reduction in cell viability measured for 48 hrs by MTT assay; type: functional, cell-based; details: MCF7, 48 h
[2] = target: T1, DNA topoisomerase 1 (Homo sapiens) (UniProt P11387); assay: Inhibition of human topoisomerase 1 assessed as relaxation of pBR322 plasmid DNA at 100 uM measured after 30 mins by agarose gel electrophoresis analysis
T1 sequence (whole entry): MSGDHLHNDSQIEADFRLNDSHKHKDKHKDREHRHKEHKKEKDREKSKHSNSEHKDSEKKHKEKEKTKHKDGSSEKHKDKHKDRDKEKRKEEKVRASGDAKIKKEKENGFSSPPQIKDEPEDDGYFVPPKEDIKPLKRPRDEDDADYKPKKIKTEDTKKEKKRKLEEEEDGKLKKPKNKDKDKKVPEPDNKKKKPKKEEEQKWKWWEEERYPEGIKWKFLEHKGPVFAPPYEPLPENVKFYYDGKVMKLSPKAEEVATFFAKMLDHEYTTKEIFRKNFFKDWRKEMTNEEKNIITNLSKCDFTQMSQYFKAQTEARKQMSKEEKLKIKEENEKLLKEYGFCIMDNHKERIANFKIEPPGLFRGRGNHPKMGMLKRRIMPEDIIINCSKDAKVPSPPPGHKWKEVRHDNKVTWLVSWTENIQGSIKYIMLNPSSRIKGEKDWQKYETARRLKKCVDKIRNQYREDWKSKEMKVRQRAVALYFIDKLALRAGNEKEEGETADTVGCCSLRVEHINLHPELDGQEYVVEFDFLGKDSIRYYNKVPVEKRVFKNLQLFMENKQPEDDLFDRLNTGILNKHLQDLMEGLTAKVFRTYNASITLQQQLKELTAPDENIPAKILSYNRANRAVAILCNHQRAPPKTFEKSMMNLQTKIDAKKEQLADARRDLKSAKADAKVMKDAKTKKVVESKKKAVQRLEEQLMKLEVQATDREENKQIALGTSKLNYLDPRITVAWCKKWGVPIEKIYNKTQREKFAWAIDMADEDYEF

MGC-803 = assay: Antiproliferative activity against human MGC-803 cells assessed as reduction in cell viability measured for 48 hrs by MTT assay; type: functional, cell-based; details: MGC-803, 48 h

| pIC50 (U-937) | topoisomerase II inhibition (active/inactive) [1] | pIC50 (MCF7) | inhibition (active/inactive call) [2] | pIC50 (MGC-803) | Compound | Activity (NIH3T3) [%] |
| --- | --- | --- | --- | --- | --- | --- |
| 4.27 | Active | 4.38 | Active | 4.47 | O=C(CCCSc1nc2c([nH]c3ccccc32)c(=O)[nH]1)NO | 38.06 |
| 4.43 | Active | < 4.10 | Active | 4.48 | C/C(=N\O)c1ccc(NC(=O)CSc2nc3c([nH]c4ccccc43)c(=O)[nH]2)cc1 | 18.72 |
| 4.74 | – | < 4.10 | Active | 4.76 | CCn1c(SCCCC(=O)NO)nc2c([nH]c3ccccc32)c1=O | 46.33 |
| 4.67 | Active | 4.81 | Active | 4.59 | O=C(CCCCCSc1nc2[nH]ncc2c(=O)[nH]1)NO | 20.31 |
| 4.32 | Active | 4.67 | Active | 4.80 | O=C(/C=C/c1ccc(CSc2nc3[nH]ncc3c(=O)[nH]2)cc1)NO | 39.04 |
| 4.71 | – | 4.59 | Active | 4.58 | CCn1c(SCCCCCC(=O)NO)nc2c([nH]c3ccccc32)c1=O | 43.13 |
| 4.82 | – | 4.38 | Active | 4.50 | CCn1c(SCC(=O)NO)nc2c([nH]c3ccccc32)c1=O | 45.5 |
| 4.71 | Active | 4.60 | Active | 4.70 | O=C(CCCCCCSc1nc2c([nH]c3ccccc32)c(=O)[nH]1)NO | 53.49 |
| 4.66 | Active | 4.31 | Active | 4.69 | O=C(/C=C/CSc1nc2c([nH]c3ccccc32)c(=O)[nH]1)NO | 41.34 |
| 4.66 | – | 4.69 | Active | 4.56 | O=C(CCCSc1nc2[nH]ncc2c(=O)[nH]1)NO | 32.15 |
| 4.35 | – | 4.44 | Active | 4.44 | C/C(=N/O)c1ccc(NC(=O)CCCSc2nc3[nH]ncc3c(=O)[nH]2)cc1 | 38.02 |
| 4.60 | – | 4.71 | Active | 4.44 | CCn1c(SCCCCCCCC(=O)NO)nc2c([nH]c3ccccc32)c1=O | 43.12 |
| 4.51 | – | 4.33 | Active | 4.37 | C/C(=N\O)c1ccc(NC(=O)CSc2nc3[nH]ncc3c(=O)[nH]2)cc1 | 41.36 |
| 4.63 | – | 4.45 | Active | 4.59 | CCn1c(SC/C=C/C(=O)NO)nc2c([nH]c3ccccc32)c1=O | 50.31 |
| 4.66 | – | 4.46 | Active | 4.33 | CCn1c(SCCCCCCC(=O)NO)nc2c([nH]c3ccccc32)c1=O | 61.71 |
| 4.74 | – | 4.37 | Active | 4.36 | CCn1c(SCCC(=O)NO)nc2c([nH]c3ccccc32)c1=O | 53.79 |

| Compound | pIC50 (U-937) | topoisomerase II inhibition (active/inactive) [1] | pIC50 (MCF7) | inhibition (active/inactive call) [2] | pIC50 (MGC-803) | Activity (NIH3T3) [%] |
| --- | --- | --- | --- | --- | --- | --- |
| CC[C@@]1(O)C(=O)OCc2c1cc1n(c2=O)Cc2cc3ccccc3nc2-1 [CAMPTOTHECIN] | 4.74 | – | 4.73 | – | 4.75 | 37.51 |
